We go through five compounds from patent US20240269113A1, “3-(2-(DIMETHYLAMINO)ETHYL)-1H-INDOL-4-yl DERIVATIVES” (priority 2023, published 2024).

Molecules are shown by their SMILES.

As for `CC(=O)Oc1ccccc1C(=O)Oc1cccc2[nH]cc(CCN(C)C)c12` [Compound 99, 3-(2-(dimethylamino)ethyl)-1H-indol4-yl 2-acetoxybenzoate], the “Human Hepatocytes Maximum % Psilocin” value is reported as 100%.

The format of another series is in vitro ADME. This is another data set of the same source. The procedure: The elimination rate constant and half-life (t1/2) were determined using Ln(MS response) vs time plots. […] The human plasma stability data are included in table A.
Turning to `CC(=O)N(C)CCOC(=O)Oc1cccc2[nH]cc(CCN(C)C)c12` [Compound 87, 3-(2-(dimethylamino)ethyl)-1H-indol-4-yl (2-(N-methylacetamido)ethyl) carbonate], the “Human Plasma Maximum % Psilocin” value is listed as 91%. Take `CN(C)CCc1c[nH]c2cccc(OC(=O)c3cccnc3)c12` [Compound 91, 3-(2-(dimethylamino)ethyl)-1H-indol-4-yl nicotinate]: the “Human Plasma Maximum % Psilocin” value turned out to be 100%.

As to `CN(C)CCc1c[nH]c2cccc(OC(=O)CCCc3ccccc3)c12` [Compound 96, 3-(2-(dimethylamino)ethyl)-1H-indol-4-yl 4-phenylbutanoate], the “Human Plasma Maximum % Psilocin” value is 75%. In the case of `CC(=O)Oc1ccccc1C(=O)Oc1cccc2[nH]cc(CCN(C)C)c12` [Compound 99, 3-(2-(dimethylamino)ethyl)-1H-indol4-yl 2-acetoxybenzoate], the “Human Plasma Maximum % Psilocin” value turned out to be 100%. As for `CN(C)CCc1c[nH]c2cccc(OC(=O)Cc3ccccc3)c12` [Compound 176, 3-(2-(dimethylamino)ethyl)-1H-indol-4-yl 2-phenylacetate], the “Human Plasma Maximum % Psilocin” value amounted to 100%.
